Assay results from patent US20260256792A1, “TREATMENT OF CHRONIC SPONTANEOUS URTICARIA BY ADMINISTERING (R)-2-[3-[4-AMINO-3-(2-FLUORO-4-PHENOXY-PHENYL)PYRAZOLO[3,4-D]PYRIMIDIN-1-YL]PIPERIDINE-1-CARBONYL]-4-METHYL-4-[4-(OXETAN-3-YL)PIPERAZIN-1-YL]PENT-2-ENENITRILE” (priority 2023, published 2026).

Experiments:
[1] = test system: patients with moderate-to-severe CSU; assay: Phase 2 CSU study: safety (TEAEs, SAEs, AESIs), double-blind period
[2] = test system: eosinophils; assay: Phase 2 CSU study: immune cell phenotyping, eosinophil levels; format: in vivo, human; details: for Eosinophils (10^9/L) Median Percent Change from Baseline: Baseline to Week 12
From the text: Collection of biological samples for other biomarker research was also part of this study. The following samples for biomarker research were required and were to be collected from all participants in this study: • Serum and plasma samples for soluble biomarkers and cellular tests. Analytes included IgG anti-IgE, IgG anti-FcεRI, IgG anti-TPO, IgE anti-TPO, IL-31, and sMRGPRX2. • Blood samples for immune cell phenotyping, including measurement of eosinophil levels • Blood samples for BTK occupancy in peripheral blood mononuclear cells (PBMCs) at selected sites

[3] = 400 mg BID (N = 41), double-blind period, safety population

In the case of CC(C)(C=C(C#N)C(=O)N1CCC[C@@H](n2nc(-c3ccc(Oc4ccccc4)cc3F)c3c(N)ncnc32)C1)N1CCN(C2COC2)CC1 [rilzabrutinib, (R)-2-[3-[4-amino-3-(2-fluoro-4-phenoxy-phenyl)pyrazolo[3,4-d]pyrimidin-1-yl]piperidine-1-carbonyl]-4-methyl-4-[4-(oxetan-3-yl)piperazin-1-yl]pent-2-enenitrile], the “Participants with any TEAE” value [1, 3] is reported as 30 (73.2) n (%), the “Participants with any TEAE leading to death” value (from here on “Participants … to death”) [1, 3] is reported as 0 n (%) and the “Participants … to death” value ([1]; 400 mg QPM (N = 38), double-blind period, safety population) is reported as 0 n (%). The “Participants … to death” value ([1]; 400 mg TID (N = 41), double-blind period, safety population) was 0 n (%), the “patients with ALT increases>3×ULN (AESI)” value ([1]; BID cohort) was 1 patient and the “patients with ALT increases>3×ULN (AESI)” value ([1]; QPM cohort) was 2 patients. For the same molecule, the “patients with ALT increases>3×ULN (AESI)” value ([1]; TID cohort) was 1 patient, the “drug-induced liver injuries (including Hy's law)” value ([1]; double-blind period) was “no drug-induced liver injuries” and the “severe/serious infections or opportunistic infections” value ([1]; double-blind period) was “no severe/serious infections or opportunistic infections”. The deaths ([1]; throughout the study) was “no deaths”, the “treatment-emergent SAEs” value ([1]; throughout the study, same incidence across all rilzabrutinib dosing groups) was 3 and the “reduction in eosinophil levels” value ([2]; 400 mg TID, Week 12) was 29.0%. The “Eosinophils (10^9/L) Median Percent Change from Baseline” value ([2]; 400 mg BID) was −11.8%, the “Eosinophils (10^9/L) Median Percent Change from Baseline” value ([2]; 400 mg QPM) was 7.7% and the “Eosinophils (10^9/L) Median Percent Change from Baseline” value ([2]; 400 mg TID) was −29.0%.
